Data from PMC4159583, “Evaluation of the Interaction between Phosphohistidine Analogues and Phosphotyrosine Binding Domains” (Chembiochem, 2014).
Read-outs that look alike come from different tables or passages of the source. *1 amine or outer side, *2 acyl side, *3 side chain or, on linkers, in order; H or OH if unused. Where a SMILES comes first, the peptide text is derived from it. [ ]: non-standard residue; d: D form. The star is where a group is joined. X2 = O=C(O)c1cc(NC(=S)*)ccc1-c1c2ccc(=O)cc-2oc2cc(O)ccc12; X1 = O=C([C@H](Cn1cc(P(=O)(O)O)nn1)N[*:1])[*:2]; pY = N[C@@H](Cc1ccc(OP(=O)(O)O)cc1)C(=O)O; phTz = not defined here; GABA = NCCCC(=O)O

Key:
[1] = pKa determination by 31P NMR pH titration; type: physicochemical
Method: NMR data were collected using a Bruker DPX300 and analysed using MestReNova software. Experiments were carried out 121 MHz using peptide S1 or S2 at a concentration of 10 mM in 10% D2O in H2O (v/v, 2 mL) with an external standard of tris-carboxyethyl phosphine (TCEP) in H2O with a δ value set at 16.30 ppm.5 The pH of the solution was measured and adjusted by addition of 100 mM NaOH in 10% D2O in H2O (v/v) in portions of 5 µL. At higher pH values significant signal-broadening was observed, which precluded accurate determination of chemical shifts and such results were not included in calculations to determine pKa’s. The pKa was determined by fitting the observed chemical shift data to a Boltzmann distribution yielding pKas of ~5.8 for pTyr and 5.95 for the phosphotriazole analogue.
Equation )/(1 + exp((x-x0)
)/(1 + exp((x-x0) Chi-Sqr
Reduced Chi-S 0.00117 Value Standard Error
Figure S10. pH titrations of peptides S1 and S2 containing phosphotyrosine (S1, left) and phosphonotriazole (S2, right) 5Determined by a preliminary experiment using TCEP with an external standard of phosphoric acid (with a shift assigned as 0.00 ppm).
(also on this page, place not known: DPX3 00 software . usin g D 2O H 2O ppm. ad justed H 2O ( v/v) 5 signal-broa dening includ ed 31 P Chemical /ppm 0.01607 0.4 31 P Chemical shift /ppm shift)

His6-(Grb2-SH2) [2] = molecular target: T1, His6-(Grb2-SH2) (Homo sapiens, UniProt P62993); assay: Competition fluorescence anisotropy/polarisation assay (displacement of 17); type: binding; settings: for competition / displacement of 17: 200 nM 17 and 175 nM Grb2-SH2, serial dilutions of peptide, pH 7.4
T1 construct: His6-(Grb2-SH2), 13132 Da; made in house
Method: (§1) Fluorescence polarization experiments
(§2) Peptides were prepared as described above. Fluorescence polarization assays were carried out in 96 well plates (160 µL per well). All experiments were performed in 50 mM Tris.HCl, 100 mM NaCl pH 7.4 (ITC buffer). 2.5-fold or 3-fold dilution series of each peptide were routinely prepared before mixing in the plate well before data acquisition using a Perkin Elmer EnVision™ 2103 MultiLabel plate reader
(§3) Determination of binding of FITC-pY peptide 17 to Grb2-SH2 domain
(§4) Grb2-SH2 was serially diluted through ITC buffer containing 100 nM peptide 17 in triplicate and the fluorescence measured in parallel and perpendicular channels. The instrumental G factor for each experiment was approximated by assuming the anisotropy r = 0 for the free peptide. For each data point the total intensity I and anisotropy r were then determined by application of equations 3 and 4 below. Data were fit using a logistic model to obtain limiting maximum and minimum values […]
(§5) upon binding of the protein and the fraction bound was therefore calculated using equation 5 where λ = Ibound/Ifree. The fraction […]
(§6) IT = Iparallel+ 2GI perpendicular (3) r = Iparallel− GI perpendicular (4)
(§7) F = r − rmin where R = Ibound (5) […]
Competition binding assay […]
fitting using a logistic model to obtain an IC50 value.

Grb2 SH2 domain [3] = settings: cited from earlier work
From the text: We envisaged producing suitable peptides by Fmoc-SPPS and investigating the interaction with proteins known to bind to phosphotyrosine. Our initial test system was the prototypical SH2 phosphotyrosine binding domain from Grb2.[19] […] A)15% SDS-PAGE: Lane 1 - MW markers, 2 & 3 –flow through Ni-NTA column of soluble fraction, 4 & 5 – elution of soluble fraction from Ni-NTA column, 6 – MW markers, 7 – insoluble fraction. B) 15% SDS-PAGE: Lane 1 - MW markers, 2 - insoluble fraction ...

[4] = molecular target: T2, full-length Grb2 purified as a glutathione S-transferase (GST) fusion (GST-Grb2) (Homo sapiens, UniProt P62993); assay: ITC of peptides into full-length GST-Grb2; type: binding
T2 construct: made in house; host or cells: E. coli BL21-Gold (DE3)
From the text: Protein expression and purification
Isothermal Titration Calorimetry (ITC)

[5] = molecular target: T3, monomeric His6-(Grb2-SH2), Grb2 SH2 domain (Homo sapiens, UniProt P62993); assay: ITC of peptides into monomeric His6-(Grb2-SH2) (late-eluting SEC peak 2); type: binding; settings: for ITC outcome, standard conditions: final ratio of ligand to protein 2:1
T3 construct: His6-(Grb2-SH2), 13132 Da; made in house
T3 sequence (P62993 with tags, fused parts or gaps): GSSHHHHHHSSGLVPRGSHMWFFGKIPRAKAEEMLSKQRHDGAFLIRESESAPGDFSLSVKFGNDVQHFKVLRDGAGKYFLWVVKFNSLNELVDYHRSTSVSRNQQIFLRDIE
From the text: (3 pictures or pasted objects on this page, not shown here)
(5 pictures or pasted objects on this page, not shown here)

His6-(Grb2-SH2) [6] = molecular target: T1, His6-(Grb2-SH2); assay: Fluorescence anisotropy direct binding of FITC-pY peptide 17; settings: 100 nM peptide 17, Grb2-SH2 serially diluted, triplicate; 50 mM Tris.HCl, 100 mM NaCl pH 7.4; fraction bound corrected for quenching; read-out: binding constant (Kd) by fluorescence anisotropy
Method: as §1, §2, §3, §4, §5, §6, §7
Competition binding assay
Grb2-SH2. […]

Grb2 SH2 domain [7] = assay: Literature affinities for Grb2-SH2; type: binding; settings: cited tripeptide Kd compared with own Kd of 11

## C[C@H](NC(=O)CNC(=O)[C@H](C)NC(=O)CNC(=O)[C@H](Cc1ccc(OP(=O)(O)O)cc1)NC(=O)CNC(=O)[C@H](C)NC(=O)CNC(=O)[C@H](C)NC(=O)CNC(=O)[C@@H](N)CS)C(=O)NCC(=O)O [S1, H-Cys-Gly-Ala-Gly-Ala-Gly pTyr-Gly-Ala-Gly-Ala-Gly-OH] (H-CGAGAG[pY]GAGAG-OH)
[1]; 31P NMR 121 MHz, peptide 10 mM in 10% D2O in H2O, titrated with 100 mM NaOH, Boltzmann fit of chemical shift
  pKa: ~ 5.8

## N[C@@H](Cc1ccc(OP(=O)(O)O)cc1)C(=O)O [compound 4, phosphotyrosine]
[1]; NMR titrations (of peptides containing the residue), phosphoryl group
  pKa: 5.8

## CC(=O)N[C@@H](CO)C(=O)N[C@@H](Cc1ccc(OP(=O)(O)O)cc1)C(=O)N[C@H](C(=O)N[C@@H](CC(N)=O)C(=O)N[C@H](C(=O)N[C@@H](CCC(N)=O)C(N)=O)C(C)C)C(C)C [compound 11, AcHN-Ser-pTyr-Val-Asn-Val-Gln-NH2, reference compound] (Ac-S[pY]VNVQ-NH2)
His6-(Grb2-SH2) [2]
  IC50: 0.442 ± 0.08 µM
  competition / displacement of 17: Binding (displacement of 17) was observed
Grb2 SH2 domain [3]; literature value for Shc-derived hexapeptide, read-out: Kd for Grb2 SH2 domain
  Kd: 0.2 µM
[4]
  Kd: 0.196 ± 0.021 µM

## CC(=O)N[C@@H](CO)C(=O)N[C@@H](Cn1cc(P(=O)(O)O)nn1)C(=O)N[C@H](C(=O)N[C@@H](CC(N)=O)C(=O)N[C@H](C(=O)N[C@@H](CCC(N)=O)C(N)=O)C(C)C)C(C)C [compound 16, AcHN-Ser-pTz-Val-Asn-Val-Gln-NH2] (Ac-S[X1]VNVQ-NH2)
His6-(Grb2-SH2) [2]
  competition / displacement of 17: Binding (displacement of 17) was observed
[5]
  ITC outcome, standard conditions: inconclusive

## CC(C)[C@H](NC(=O)[C@H](CC(N)=O)NC(=O)[C@@H](NC(=O)[C@H](Cc1ccc(OP(=O)(O)O)cc1)NC(=O)[C@H](CO)NC(=O)CCCNC(=S)Nc1ccc(-c2c3ccc(=O)cc-3oc3cc(O)ccc23)c(C(=O)O)c1)C(C)C)C(=O)N[C@@H](CCC(N)=O)C(N)=O [compound 17, FITC-Gaba-Ser-pTyr-Val-Asn-Val-Gln-NH2] ({X2-GABA}-S[pY]VNVQ-NH2)
His6-(Grb2-SH2) [6]
  Kd: 0.283 ± 0.018 µM

## AcHN-Ser-His-Val-Asn-Val-Gln-NH2 [compound 19]
His6-(Grb2-SH2) [2]
  competition / displacement of 17: No competition

## AcHN-Ser-Tyr-Val-Asn-Val-Gln-NH2 [compound 18]
His6-(Grb2-SH2) [2]
  competition / displacement of 17: No competition

## AcHN-Ser-pSer-Val-Asn-Val-Gln-NH2 [compound 20]
His6-(Grb2-SH2) [2]
  competition / displacement of 17: No competition

## AcHN-Ser-pThr-Val-Asn-Val-Gln-NH2 [compound 21]
His6-(Grb2-SH2) [2]
  competition / displacement of 17: No competition

## AcHN-Ser-phTz-Val-Asn-Val-Gln-NH2 ({Ac-Ser-phTz}-VNVQ-NH2; reading uncertain; also: printed as AcHN-Ser-phTz-Val-Asn-Val-Gln-NH2) [compound 15]
His6-(Grb2-SH2) [2]
  competition / displacement of 17: No competition
[4]; ITC, peptide titrated into GST-Grb2, 25 °C, ITC buffer pH 7.4
  ITC titration outcome: inconclusive
[5]; low c-value conditions, final ratio of ligand to protein 8:1, indistinguishable from titration into buffer
  ITC binding outcome, low c-value: no binding
[5]
  ITC outcome, standard conditions: inconclusive

## AcHN-pTyr-Val-Asn-NH2 [literature control tripeptide for Grb2-SH2]
Grb2 SH2 domain [7]
  fold lower affinity for monomeric Grb2-SH2 than hexapeptide 11: ~ 5 fold
Grb2 SH2 domain [3]; literature control tripeptide, main article, read-out: Kd for monomeric Grb2-SH2
  Kd: 1.6 µM

## H-Cys-Gly-Ala-Gly-Ala-Gly pTz-Gly-Ala-Gly-Ala-Gly-OH [S2]
[1]
  pKa: 5.95
